Source: patent publication US7144920B2, “Polyamine analogs that activate antizyme frameshifting” (MediQuest Therapeutics, Inc., priority 2002, dated 2006)
Where “and” joins values, the source holds several entries; their conditions need not be identical. Identical values can stand only once. Like-named read-outs stand apart in the source and are kept apart here.

What was measured:
[1] = molecular target: ODC; settings: read-out: Ki for ODC inhibition; cited from earlier work
[2] = system: antizyme frameshifting (inducible 0 to +1 AZ1 construct) in HEK-293 cells; assay: dual luciferase reporter assay for antizyme frameshifting; assay type: cell-based; settings: for induction of antizyme frameshifting, comparison in words / frameshift-rescue factor (FRF): 25 μM; for induction of antizyme frameshifting, comparison in words: HEK-293 (FIG. 1, FIG. 2); for frameshift-rescue factor (FRF): % RF multiplied by inverse of rescue coefficient, HEK-293; for EC50: HEK-293 cells grown in 2.5 mM DFMO, 50% of maximum percent frameshifting (plateau, FIG. 3), read-out: EC50 for induction of frameshifting
Procedure: Frameshifting can be detected using a dual luciferase reporter system that measures the efficiency of antizyme translational frameshifting (Grentzmann, G. et. al., RNA 4:479–486 (1998); Howard, M. et. al., Genes to Cells 6:931–941 (2001)). Frameshifting efficiency is determined by comparing the ratio of firefly luciferase to renilla luciferase activity in cells transfected in parallel using a control vector containing a constitutive +1 frameshift (AZ-IF) that measures the in-frame translation efficiency and a vector containing the inducible 0 to +1 frameshift (AZ1) construct. In these constructs, the renilla luciferase gene is upstream of the firefly luciferase gene which are separated by a short cloning sequence containing the portions of antizyme 1 and 2 known to contain the mRNA signals for polyamine stimulated frameshifting. Using a 96-well format, this assay system gives a quantitative measure of the efficiency of the polyamines, polyamine analogs and other compounds to induce frameshifting in a cell-based bioassay. Cells must be pretreated with α-difluoromethylornithine (DFMO), an irreversible inhibitor of ODC, prior to screening to decrease the basal antizyme frameshifting levels and increase the sensitivity to polyamine or compound-mediated stimulation of antizyme frameshifting.
FIG. 1 is a tabular representation of a large number of polyamines A-S (25 μM) that were tested for their ability to induce antizyme frameshifting using the dual luciferase reporter assay. The percent relative frameshifting value (% RF) gives a comparison of the ability of a compound to induce frameshifting compared to 25 μM spermidine. The % RF was calculated as follows. The background percent frameshifting activity determined from the 2.5 mM DFMO negative control was subtracted from the percent frameshifting activity for all compounds including the spermidine control. The background corrected frameshifting activity of each compound was then divided by the background corrected frameshifting activity induced by 25 μM spermidine and multiplied by 100. The compounds were also evaluated for their ability to rescue cells from DFMO-induced growth inhibition by determining their rescue coefficient. The rescue coefficient represents the ratio of the cell growth, as measured by O.D., in the presence of the test compound with 2.5 mM DFMO to the growth in the presence of 2.5 mM DFMO alone. The frameshift-rescue factor (FRF) is a useful factor to compare the effectiveness of the various antizyme frameshifters by taking into account their potency for inducing frameshifting and ability to rescue cells from DFMO-induced growth inhibition. The FRF was calculated by multipling the % RF value by the inverse of the rescue coefficient.
Values represent percent frameshifting following transient transfection of an AZ1-IF control and the inducible 0 to +1 AZ1 plasmid construct into HEK-293 cells grown in the presence of 2.5 mM DFMO. The compounds were added to the cells after transfection and incubated overnight before assaying the next day. Each value represents triplicate measurements.
A series of compounds are screened for their ability to induce frameshifting using the dual luciferase reporter assay. HEK-293 cells are plated in white sided, clear-bottomed 96-well assay plates at 15,000 cells per well in 100 μL of medium (DMEM supplemented with 10% fetal bovine serum (Gibco), 1% penicillin, streptomycin and L-glutamine) containing 2.5 mM DFMO. The cells are incubated for 2-days at 37° C. in an atmosphere of 5% CO2. The medium is removed and the cells are then transfected with lipofectamine reagent (LifeTechnologies) using serum free DMEM. All cells are transfected overnight with 100 ng of the appropriate plasmid DNA and 0.3 μL lipofectamine in 50 μL of serum free DMEM containing 2.5 mM DFMO. The next day, 40 μL of medium is added per well containing 3.1 mM DFMO, 2.5 mM aminoguanidine and 25% FBS. […]

[3] = system: HEK-293 cells; assay: rescue from DFMO-induced growth inhibition; assay type: cell-based; settings: 25 μM compound, 2.5 mM DFMO, 6 days
Procedure: FIG. 5 gives a comparison of the ability of antizyme frameshifters (25 μM) to rescue cells from 2.5 mM DFMO-induced growth inhibition compared to 25 μM spermidine (SPD) in a 6-day assay in HEK-293 cells. The rescue coefficient represents the ratio of cell growth, as measured by O.D., of the test compound with 2.5 mM DFMO versus 2.5 mM DFMO alone.
HEK-293 cells are plated in 96-well assay plates at 1,000 cells per well in 100 μL of medium (DMEM supplemented with 10% fetal bovine serum (Gibco), 1% penicillin, streptomycin and L-glutamine). The cells are incubated overnight at 37° C. in an atmosphere of 5% CO2. Compounds are added the next day to a final concentration of 25 μM along with 1 mM aminoguanidine (inhibits serum amine oxidase) and 2.5 mM DFMO in a final volume of 200 μL medium. The positive control contained 25 μM spermidine. The cells are allowed to incubate for 6 days before cell growth is measured by MTS/PMS dye assay (Cell Titer 96 Aqueous Non-Radioactive Cell Proliferation Assay, Promega). The rescue coefficients in FIG. 1 and FIG. 5 are expressed as the ratio of the O.D. ((compound+2.5 mM DFMO)/O.D. (2.5 mM DFMO alone)). Therefore, DFMO alone has a value of one. […] If the value is less than one, then the compound is growth inhibitory. If the value is 0, the compound is cytotoxic.

[4] = system: HEK-293 cells; assay: depletion of intracellular polyamine levels (HPLC) and cell growth; assay type: cell-based
Procedure: FIG. 6 is a graph showing the effect of a 6-day incubation of compound A on HEK-293 cellular polyamine levels and cell growth. All flasks received 1 mM aminoguanidine. Cells were washed, counted, lysed in perchloric acid, dansylated and polyamine levels determined by HPLC. Each value represents the average of triplicate values with the error bars representing standard deviation.
FIG. 7 illustrates the effect of extracellular compound A on the intracellular concentration of compound A in HEK-293 cells as determined by HPLC. Cells were prepared as in FIG. 6. Peak area was normalized by dividing the peak area of the compound divided by the peak area of the internal standard, diaminoheptane. Values represent at least triplicate measurements with the error bars representing standard deviation.
Compound A is further evaluated to determine if it depletes intracellular polyamine levels in HEK-293 cells in a dose-dependent fashion (FIG. 6). HEK-293 cells are plated in 75 cm^2 flasks at 300,000 cells/mL to insure they would be in log growth for the duration of the experiment. After overnight incubation at 37° C. in an atmosphere of 5% CO2, compound A is added along with 1 mM aminoguanidine. The flasks are then incubated for 6 days at 37° C. in an atmosphere of 5% CO2. The cells are harvested by washing twice with ice-cold 1×PBS, trypsinized, counted, and lysed in 0.4 N perchloric acid. Diaminoheptane is used in all dansylation reactions as an internal standard. Peak area is normalized by dividing the peak area of the compound divided by the peak area of the internal standard. The HPLC method for the fluorometric detection of polyamines from the cell extracts is based on the procedure by Kabra (Kabra, P. M. et. al. J. Chromatogr. 380:19–32 (1986)).

[5] = system: HEK-293 cells; assay: cells; assay type: cell-based; settings: for IC50: read-out: IC50 growth inhibition
Procedure: Cell number was determined by MTS/PMS assay from triplicate wells.
(§1) Cells are plated in 96-well plates such that they would be in log growth for the duration of the assay. The day after plating, the polyamine analogs are added to the cells, and growth, if any, permitted to continue for six days in the presence of 1 mM AG and 1 μM SPD when appropriate. At the end of six days, cell growth is measured by MTS/PMS dye assay (Cell Titer 96 Aqueous Non-Radioactive Cell Proliferation Assay; Promega, Madison, Wis.). IC50 refers to the concentration of the polyamine analog that results in 50% of maximum cell growth inhibition.

[6] = system: mouse kidney proximal tubule (MCT) cell; settings: MCT cells; cited from earlier work
[7] = system: prostate PC-3 cells; assay: growth inhibition, PC-3; assay type: cell-based; settings: Homo sapiens; prostate PC-3 cells (data not shown)
Procedure: as §1

[8] = system: MDA-MB-231 cells; assay: growth inhibition, MDA-MB-231; assay type: cell-based; settings: Homo sapiens; MDA-MB-231 cells (data not shown)
Procedure: as §1

[9] = system: antizyme frameshifting; settings: cited from earlier work

Q: Which Ki [1] does the source give for `NC/C=C/CN` [1,4-diamino-trans-2-butene] here?
A: Its Ki is 2 µM.

Q: For “N-(3-aminopropyl)-xylylenediamin [Compound A]”, which “induction of antizyme frameshifting, comparison in words” value [2] is on record?
A: The value was “more potent than agmatine”.

Q: What about the “frameshift-rescue factor (FRF)” value [2] of the same compound?
A: The value was 120.

Q: And the EC50 [2]?
A: Its EC50 is roughly 120 µM.

Q: And the “ability to rescue cells from DFMO-induced growth inhibition” value [3]?
A: Its value is “neither compound A nor B significantly rescue cells”.

Q: And the cell growth decrease ([4]; 10 μM compound A, 6 days)?
A: Its cell growth decrease is 32%.

Q: And the “spermidine levels down by” value ([4]; 10 μM compound A, 6 days)?
A: Its value is “about 90%”.

Q: What about the cell growth decrease ([4]; 30 μM compound A, 6 days) of the same compound?
A: The cell growth decrease was 38.5%.

Q: And the intracellular spermidine level ([4]; 100 μM compound A, 6 days)?
A: The intracellular spermidine level was “non-detectable”.

Q: And the “spermine levels reduced by” value ([4]; 100 μM compound A, 6 days)?
A: The value was 50%.

Q: And the “spermine levels, of normal” value ([4]; compound A levels above 30 μM)?
A: The value was “approximately 50%”.

Q: And the intracellular putrescine level ([4]; lowest concentration of compound A tested, 6 days)?
A: The intracellular putrescine level was “non-detectable”.

Q: And the IC50 ([5]; HEK-293, 6 days, 1 mM aminoguanidine)?
A: Its IC50 is ~60 µM and 60 µM.

Q: And the “compound A concentrations at which 1 μM spermidine rescued cells from growth inhibition” value ([5]; HEK-293, 6 days, with 1 μM spermidine)?
A: Its value is 3 to 100 µM.

Q: For “N-(4-amino-1-butane-N-(3-aminopropyl-)-xylylenediamine [Compound B]”, which “induction of antizyme frameshifting, comparison in words” value [2] is on record?
A: The value was “more potent than agmatine”.

Q: And the “frameshift-rescue factor (FRF)” value [2]?
A: The value was 83.

Q: What about the “ability to rescue cells from DFMO-induced growth inhibition” value [3] of the same compound?
A: Its value is “neither compound A nor B significantly rescue cells”.

Q: For `NCCCCNCCCN` [spermidine, reference compound], which EC50 ([2]; Homo sapiens, HEK293) is on record?
A: Its EC50 is 0.56 µM.

Q: With `NCCCCN` [putrescine, reference compound] as the compound, how does the EC50 ([2]; Homo sapiens, HEK293) read?
A: Its EC50 is 0.95 µM.

Q: Which Ki [1] does the source give for `Nc1ccc(N)cc1` [1,4-phenylenediamine] here?
A: The Ki was 46 µM.

Q: Which results are given for `NCCCN(CCCN)Cc1ccc(CN(CCCN)CCCN)cc1` [Compound S]?
A: percent relative frameshifting (% RF) ([2]; 25 μM compound, relative to 25 μM spermidine): 100%; ability to rescue cells from DFMO-induced growth inhibition [3]: no ability to rescue

Q: With `N=C(N)NCCCCN` [agmatine] as the compound, how does the “frameshift-rescue factor (FRF)” value [2] read?
A: The value was 17.

Q: What about the “concentration of maximum growth inhibition” value [6] of the same compound?
A: The value was no more than 1 mM.

Q: What about the “ability to rescue cells from DFMO-induced growth inhibition” value [3] of the same compound?
A: The value was “somewhat better than either A or B in rescuing cells”.

Q: And the IC50 [7]?
A: Its IC50 is roughly 5000 µM.

Q: And the IC50 [8]?
A: The IC50 was roughly 2000 µM.

Q: And the IC50 ([5]; Homo sapiens, HEK293, HEK-293 cells (data not shown))?
A: Its IC50 is roughly 210 µM.

Q: And the “concentration of maximum frameshifting efficiency” value [9]?
A: The value was 4 mM.

Q: With `NCCCNCCCCNCCCN` [spermine, reference compound] as the compound, how does the EC50 ([2]; Homo sapiens, HEK293) read?
A: Its EC50 is 0.68 µM.
